Data on 33 compounds can be found in US9073821B2, “Hydroxamic acid derivative” (priority 2010, dated 2015).

The target of the first test is Pseudomonas aeruginosa LpxC enzyme (Pseudomonas aeruginosa (strain ATCC 15692 / DSM 22644 / CIP 104116 / JCM 14847 / LMG 12228 / 1C / PRS 101 / PAO1), UniProt P47205). In words: biochemical. The format is biochemical. The conditions noted are these: class symbols A/B/C by IC50; Table 3; read-out: Enzyme inhibitory activity (inhibitory activity on Pseudomonas aeruginosa LpxC enzyme).
Consider `CCOCc1cc(C#Cc2ccc(C(=O)N(C)[C@@](C)(C(=O)NC)C(=O)NO)cc2)co1` [Compound 612, (2S)-2-[(4-{[5-(ethoxymethyl)furan-3-yl]ethynyl}benzoyl)(methyl)amino]-N-hydroxy-N′,2-dimethylpropanediamide], for which the IC50 is < 10 nM. The same measure, in the same setting: the result for `CCOC1CN(Cc2cc(C#Cc3ccc(C(=O)N(C)[C@@](C)(C(=O)NC)C(=O)NO)cc3)co2)C1` [Compound 584, (2S)-2-[{[4-({5-[(3-ethoxyazetidin-1-yl)methyl]furan-3-yl}ethynyl)phenyl]carbonyl}(methyl)amino]-N-hydroxy-N′,2-dimethylpropanediamide] reads < 10 nM.

The test is the same for the next values; noted with them: inhibitory activity on Pseudomonas aeruginosa LpxC enzyme, class symbols A/B/C; read-out: Enzyme inhibitory activity.
For `CN(C)CCNC(=O)C(NC(=O)c1ccc(-c2ccc(OCCO)cc2)cc1)C(=O)NO` (stereo not drawn) [Compound 123, N-[2-(dimethylamino)ethyl]-N′-hydroxy-2-({[4′-(2-hydroxyethoxy)biphenyl-4-yl]carbonyl}amino)propanediamide], the IC50 is > 100 nM.

Consider `CNC(=O)C(C(=O)NO)N(C)C(=O)c1ccc(-c2ccc(/N=C/NO)cc2)cc1` (stereo not drawn) [Compound 272, N-hydroxy-2-{[(4′-{[(E)-(hydroxyamino)methylidene]amino}biphenyl-4-yl)carbonyl](methyl)amino}-N′-methylpropanediamide], for which the IC50 is < 10 nM.

In the case of `CNC(=O)C(C(=O)NO)N(C)C(=O)c1ccc(-c2ccc(OCCF)cc2)cc1` (stereo not drawn) [Compound 255, 2-[{[4′-(2-fluoroethoxy)biphenyl-4-yl]carbonyl}(methyl)amino]-N-hydroxy-N′-methylpropanediamide], the IC50 was < 10 nM. On the same count and under the same terms, the result for `CNC(=O)C(C(=O)NO)N(C(=O)c1ccc(-c2ccc(OCCO)cc2)cc1)C1CC1` (stereo not drawn) [Compound 154, 2-(cyclopropyl {[4′-(2-hydroxyethoxy)biphenyl-4-yl]carbonyl}amino)-N-hydroxy-N′-methylpropanediamide] reads 10 to 100 nM. Same read-out and setting: the value for `CNC(=O)C(C(=O)NO)N(C)C(=O)c1ccc(C#Cc2coc(CN3CCOCC3)c2)cc1` (stereo not drawn) [Compound 483, N-hydroxy-N′-methyl-2-{methyl[(4-{[5-(morpholin-4-ylmethyl)furan-3-yl]ethynyl}phenyl)carbonyl]amino}propanediamide] was < 10 nM; that for `O=C(NC(C(=O)NO)C(=O)NO)c1ccc(-c2ccc(OCCO)cc2)cc1` [Compound 148, N,N′-dihydroxy-2-({[4′-(2-hydroxyethoxy)biphenyl-4-yl]carbonyl}amino)propanediamide] was 10 to 100 nM. Same read-out and setting: the value for `CNC(=O)C(C(=O)NO)N(C)C(=O)c1ccc(-c2cccc(C)n2)cc1` (stereo not drawn) [Compound 295, N-hydroxy-N′-methyl-2-(methyl {[4-(6-methylpyridin-2-yl)phenyl]carbonyl}amino)propanediamide] was > 100 nM; that for `CNC(=O)C(C)(NC(=O)c1ccc(-c2ccccc2)cc1)C(=O)NO` (stereo not drawn) [Compound 164, 2-[(Biphenyl-4-ylcarbonyl)amino]-N-hydroxy-N′,2-dimethylpropanediamide] was > 100 nM; that for `CNC(=O)C(C(=O)NO)N(C)C(=O)c1ccc(OCc2ccc(OC)cc2)cc1` (stereo not drawn) [Compound 319, N-hydroxy-2-[({4-[(4-methoxybenzyl)oxy]phenyl}carbonyl)(methyl)amino]-N′-methylpropanediamide] was 10 to 100 nM.

Turning to `CNC(=O)C(C(=O)NO)N(C)C(=O)c1ccc(Oc2ccccc2)cc1` (stereo not drawn) [Compound 443, N-hydroxy-N′-methyl-2-{methyl[(4-phenoxyphenyl)carbonyl]amino}propanediamide], the IC50 is > 100 nM. The same measure, in the same setting: the result for `CNC(=O)C(C(=O)NO)N(C)C(=O)c1ccc(C#CC#Cc2ccc(CN3CCN(C)CC3)cc2)cc1` (stereo not drawn) [Compound 492, N-hydroxy-N′-methyl-2-(methyl {[4-(4-{4-[(4-methylpiperazin-1-yl)methyl]phenyl}buta-1,3-diyn-1-yl)phenyl]carbonyl}amino)propanediamide] reads < 10 nM; that for `CNC(=O)[C@@](C)(C(=O)NO)N(C)C(=O)c1ccc(C#Cc2ccc(CS(C)(=O)=O)cc2)cc1` [Compound 422, (2S)-N-hydroxy-N′,2-dimethyl-2-(methyl {[4-({4-[(methylsulfonyl)methyl]phenyl}ethynyl)phenyl]carbonyl}amino)propanediamide], < 10 nM.

As for `Cn1nccc1CNC(=O)C(NC(=O)c1ccc(-c2ccc(OCCO)cc2)cc1)C(=O)NO` (stereo not drawn) [Compound 146, N-hydroxy-2-({[4′-(2-hydroxyethoxy)biphenyl-4-yl]carbonyl}amino)-N′-[(1-methyl-1H-pyrazol-5-yl)methyl]propanediamide], the IC50 was < 10 nM. Same read-out and setting: the value for `CNC(=O)C(C(=O)NO)N(C)C(=O)c1ccc(-c2ccc(NC)c(F)c2)cc1` (stereo not drawn) [Compound 38, 2-[{[3′-fluoro-4′-(methylamino)biphenyl-4-yl]carbonyl}(methyl)amino]-N-hydroxy-N′-methylpropanediamide] was < 10 nM; that for `CNC(=O)C(C(=O)NO)N(C)C(=O)c1ccc(C#Cc2ccc(C(F)(F)F)cc2)cc1` (stereo not drawn) [Compound 420, N-hydroxy-N′-methyl-2-{methyl[(4-{[4-(trifluoromethyl)phenyl]ethynyl}phenyl)carbonyl]amino}propanediamide] was 10 to 100 nM. `CNC(=O)C(C(=O)NO)N(C)C(=O)c1ccc(C#Cc2ccc(CN3CCC(O)CC3)cc2)cc1` (stereo not drawn) [Compound 334, N-hydroxy-2-[{[4-({4-[(4-hydroxypiperidin-1-yl)methyl]phenyl}ethynyl)phenyl]carbonyl}(methyl)amino]-N′-methylpropanediamide]: the IC50 is < 10 nM. Same read-out and setting: the value for `CNC(=O)[C@](C)(C(=O)NO)N(C)C(=O)c1ccc(-c2ccccc2)cc1` [Compound 343, (2R)-2-[(biphenyl-4-ylcarbonyl)(methyl)amino]-N-hydroxy-N′,2-dimethylpropanediamide] was > 100 nM. Still for that read-out and setting: the result for `CNC(=O)C(C(=O)NO)N(C)C(=O)c1ccc(-c2ccc(OCCCN(C)Cc3ccccc3)cc2)cc1` (stereo not drawn) [Compound 70, 2-{[(4′-{3-[benzyl(methyl)amino]propoxy}biphenyl-4-yl)carbonyl](methyl)amino}-N-hydroxy-N′-methylpropanediamide] reads < 10 nM; that for `CNC(=O)C(C(=O)NO)N(C)C(=O)c1ccc(-c2ccc(CN(C)C)cc2)cc1` (stereo not drawn) [Compound 194, 2-[({4′-[(dimethylamino)methyl]biphenyl-4-yl}carbonyl)(methyl)amino]-N-hydroxy-N′-methylpropanediamide], > 100 nM; that for `CNC(=O)C(C(=O)NO)N(C)C(=O)c1ccc(-c2cc(C)ccn2)cc1` (stereo not drawn) [Compound 452, N-hydroxy-N′-methyl-2-(methyl {[4-(4-methylpyridin-2-yl)phenyl]carbonyl}amino)propanediamide], > 100 nM. For the compound `CNC(=O)C(C(=O)NO)N(C)C(=O)c1ccc(-c2ccc(C3OCCO3)cc2)cc1` (stereo not drawn) [Compound 187, 2-[{[4′-(1,3-dioxolan-2-yl)biphenyl-4-yl]carbonyl}(methyl)amino]-N-hydroxy-N′-methylpropanediamide], the IC50 is < 10 nM. Same read-out and setting: the value for `CNC(=O)C(C(=O)NO)N(C)C(=O)c1ccc(-c2ccc(/C=N/O)cc2)cc1` (stereo not drawn) [Compound 195, N-hydroxy-2-[({4′-[(E)-(hydroxyimino)methyl]biphenyl-4-yl}carbonyl)(methyl)amino]-N′-methylpropanediamide] was < 10 nM; that for `CNC(=O)C(C(=O)NO)N(C)C(=O)c1ccc(-c2ccc(NC)c(Cl)c2)cc1` (stereo not drawn) [Compound 227, 2-[{[3′-chloro-4′-(methylamino)biphenyl-4-yl]carbonyl}(methyl)amino]-N-hydroxy-N′-methylpropanediamide] was < 10 nM. The same measure, in the same setting: the value for `CNC(=O)C(C(=O)NO)N(C)C(=O)c1ccc(-c2ccc(SCCOC)cc2)cc1` (stereo not drawn) [Compound 291, N-hydroxy-2-[({4′-[(2-methoxyethyl)sulfanyl]biphenyl-4-yl}carbonyl)(methyl)amino]-N′-methylpropanediamide] was < 10 nM; that for `CNC(=O)[C@@](C)(C(=O)NO)N(C)C(=O)c1ccc(-c2ccc(OCCN3CCOCC3)cc2)cc1` [Compound 437, (2S)-N-hydroxy-N′,2-dimethyl-2-[methyl({4′-[2-(morpholin-4-yl)ethoxy]biphenyl-4-yl}carbonyl)amino]propanediamide] was < 10 nM; that for `CNC(=O)C(C(=O)NO)N(C)C(=O)c1ccc(-c2cccc(C)c2)cc1` (stereo not drawn) [Compound 29, N-hydroxy-N′-methyl-2-{methyl[(3′-methylbiphenyl-4-yl)carbonyl]amino}propanediamide] was < 10 nM. Regarding `CNC(=O)C(NC(=O)c1ccc(-c2ccc(OCCO)cc2)cc1)C(=O)NO` (stereo not drawn) [Compound 113, N-hydroxy-2-({[4′-(2-hydroxyethoxy)biphenyl-4-yl]carbonyl}amino)-N′-methylpropanediamide], the IC50 is < 10 nM. With `CNC(=O)C(C(=O)NO)N(C)C(=O)c1ccc(-c2ccc(OCCCNC3CC3)cc2)cc1` (stereo not drawn) [Compound 217, 2-[({4′-[3-(cyclopropylamino)propoxy]biphenyl-4-yl}carbonyl)(methyl)amino]-N-hydroxy-N′-methylpropanediamide], the IC50 is 10 to 100 nM. On the same count and under the same terms, the value for `CNC(=O)C(C(=O)NO)N(C)C(=O)c1ccc(-c2ccc(NCCO)cc2)cc1` (stereo not drawn) [Compound 179, N-hydroxy-2-[({4′-[(2-hydroxyethyl)amino]biphenyl-4-yl}carbonyl)(methyl)amino]-N′-methylpropanediamide] was < 10 nM.

As for `O=C(NC(C(=O)NO)C(=O)NCC1CC1)c1ccc(-c2ccc(OCCO)cc2)cc1` (stereo not drawn) [Compound 9, N-(cyclopropylmethyl)-N′-hydroxy-2-({[4′-(2-hydroxyethoxy)biphenyl-4-yl]carbonyl}amino)propanediamide], the IC50 lay within 10 to 100 nM. Still for that read-out and setting: the value for `CNC(=O)C(C(=O)NO)N(C)C(=O)c1ccc(-c2ccc(OCC(F)CN3CCOCC3)cc2)cc1` (stereo not drawn) [Compound 283, 2-[({4′-[2-fluoro-3-(morpholin-4-yl)propoxy]biphenyl-4-yl}carbonyl)(methyl)amino]-N-hydroxy-N′-methylpropanediamide] was < 10 nM.
